Test results: ChEMBL document CHEMBL5604063, “ASAP - DENV-2 NS2B-NS3 protease fluorescence dose response” (2024)
Several values for one entry are separate records, joined by “and”; a condition that tells them apart may be missing. Identical values can stand only once.

Experiments:
Genome polyprotein [1] = biological target: T1, Genome polyprotein (dengue virus type 2, UniProt P29990); type: functional, Thailand/16681/1984
Genome polyprotein [2] = biological target: T1, Genome polyprotein; type: functional, Thailand/16681/1984; remark: listed apart in the source

T1 sequence (P29990 1346-1475 limits assumed): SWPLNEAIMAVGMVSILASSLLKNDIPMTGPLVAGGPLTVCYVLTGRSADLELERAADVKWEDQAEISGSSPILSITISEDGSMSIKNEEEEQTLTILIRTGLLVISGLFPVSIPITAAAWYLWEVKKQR
T1 sequence (P29990 1476-2093 limits assumed): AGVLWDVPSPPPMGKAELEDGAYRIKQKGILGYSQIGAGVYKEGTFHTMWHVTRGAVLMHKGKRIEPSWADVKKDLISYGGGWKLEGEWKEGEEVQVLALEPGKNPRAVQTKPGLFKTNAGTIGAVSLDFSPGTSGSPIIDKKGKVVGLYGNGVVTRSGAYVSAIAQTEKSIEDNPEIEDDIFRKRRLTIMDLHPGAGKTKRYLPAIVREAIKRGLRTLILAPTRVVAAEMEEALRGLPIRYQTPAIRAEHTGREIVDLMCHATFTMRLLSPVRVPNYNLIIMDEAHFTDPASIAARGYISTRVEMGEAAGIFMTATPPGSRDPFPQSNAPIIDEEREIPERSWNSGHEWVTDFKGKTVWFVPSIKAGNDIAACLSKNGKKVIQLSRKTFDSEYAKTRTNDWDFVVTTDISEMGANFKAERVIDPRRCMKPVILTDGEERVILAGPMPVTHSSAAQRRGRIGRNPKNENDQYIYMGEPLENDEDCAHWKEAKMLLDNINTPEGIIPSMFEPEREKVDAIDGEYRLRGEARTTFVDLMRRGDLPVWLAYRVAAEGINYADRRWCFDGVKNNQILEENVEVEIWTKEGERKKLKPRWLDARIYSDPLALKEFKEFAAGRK

Compound	IC50 (Genome polyprotein [1]) [µM]	IC50 (Genome polyprotein [2])
Cn1ccc(COc2ccc([C@@H](NC(=O)OCc3ccccc3)C(=O)Nc3cccc(CN)c3)cc2)n1	> 100	> 99.5 µM
NCc1cccc(NC(=O)[C@@H](NC(=O)OCc2ccccc2)C2CCN(Cc3cn[nH]c3)CC2)c1	> 100	> 99.5 µM
Cn1nc2c(c1NC(=O)c1cc(Cl)cc(NC(=O)OCc3ccccc3)c1)CCNC2	> 100	> 99.5 µM
NCc1cccc(NC(=O)c2ccc(F)c(NC(=O)OCc3ccccc3)c2F)c1	> 100	> 99.5 µM
Cc1nnsc1CN1CCC([C@@H](NC(=O)OCc2ccccc2)C(=O)Nc2cccc(CN)c2)CC1	> 100	> 99.5 µM
N#Cc1cc(Cl)cc(C(=O)Nc2cccc(CN)c2)c1	> 100	> 99.5 µM
NCc1cccc(NC(=O)[C@@H](NC(=O)OCc2ccccc2)C2CCN(C(=O)c3cscn3)CC2)c1	> 100	> 99.5 µM
NCc1cccc(NC(=O)[C@@H](NC(=O)OCc2ccccc2)c2ccc(OCC3CCOCC3)cc2)c1	> 100	86 µM
NCc1cccc(NC(=O)c2cc(Cl)ccc2Oc2cccc(Cl)c2)c1	> 100	> 99.5 µM
NCC12CC(NC(=O)c3cc(Cl)cc(NC(=O)OCc4ccccc4)c3)(CCO1)C2	> 100	> 99.5 µM
COc1c(Cl)cc(Cl)cc1C(=O)Nc1cccc(CN)c1	> 100	> 99.5 µM
O=C(Cn1ccnc(N2CC[C@H](CO)C2)c1=O)NCc1ccsc1	> 100	> 99.5 µM
O=C(Cn1ccnc(N2CC[C@H](CO)C2)c1=O)N[C@H]1CCOC1	> 100	> 99.5 µM
CCCOc1ccc2[nH]cc(CN3CCC(c4cscn4)CC3)c2c1	> 100	> 99.5 µM
NCc1cccc(/C=C/c2cc(Cl)cc(NC(=O)OCc3ccccc3)c2)c1	> 100	> 99.5 µM
CN1CCC[C@H]1COc1ccc([C@@H](NC(=O)OCc2ccccc2)C(=O)Nc2cccc(CN)c2)cc1	> 100	> 99.5 µM
NS(=O)(=O)c1ccccc1N1CCN(Cc2c[nH]c3ccccc23)CC1	> 100	> 99.5 µM
C=CC[C@]1(NC(=O)c2cc(Cl)cc(NC(=O)OCc3ccccc3)c2)CCNC1	> 100	> 99.5 µM
NCc1cccc(NS(=O)(=O)c2cc(Cl)cc(NC(=O)OCc3ccccc3)c2)c1	> 100	> 99.5 µM
CCOC(=O)Nc1cc(Cl)cc(C(=O)Nc2cccc(CN)c2)c1	> 100	> 99.5 µM
NCc1cccc(NC(=O)[C@@H](NC(=O)OCc2ccccc2)c2ccc(OCc3nc4c(s3)COCC4)cc2)c1	> 100	> 99.5 µM
O=C(Nc1cc(Cl)cc(C(=O)NC[C@@]23CN[C@H](CCO2)C3)c1)OCc1ccccc1	> 100	> 99.5 µM

Compound	IC50 (Genome polyprotein [1]) [µM]	IC50 (Genome polyprotein [2])
NCCCc1ccc(F)c(NC(=O)c2cc(Cl)cc(NC(=O)OCc3ccccc3)c2)c1	91.1	27.8 µM
COCCN(C)C(=O)Cn1ccnc(N2CC[C@@H](CO)C2)c1=O	> 100	> 99.5 µM
NCc1ccc(F)c(NC(=O)c2cc(Cl)cc(NC(=O)OCc3ccccc3)c2)c1	> 100	> 99.5 µM
CC(C)OC(=O)Nc1cc(Cl)cc(C(=O)Nc2cccc(CN)c2)c1	> 100	> 99.5 µM
NC[C@@H](NC(=O)c1cc(Cl)cc(NC(=O)OCc2ccccc2)c1)c1ccccc1	> 100	> 99.5 µM
O=C(Nc1cc(Cl)cc(C(=O)NC[C@@H]2CNCCC2(F)F)c1)OCc1ccccc1	> 100	> 99.5 µM
CC(C)(C)OC(=O)NCc1cc(Cl)cc(C(=O)O)c1	> 100	> 99.5 µM
NC[C@H]1C[C@@H](CNC(=O)c2cc(Cl)cc(NC(=O)OCc3ccccc3)c2)CCO1	> 100	> 99.5 µM
c1ccc(COc2ccc3c(CN4CCC(c5cscn5)CC4)c[nH]c3c2)cc1	> 100	> 99.5 µM
CCc1[nH]c2ccccc2c1CN1CCC(c2cscn2)CC1	> 100	> 99.5 µM
O=C(Nc1cc(Cl)cc(C(=O)NC[C@H]2CC3(CNC3)CO2)c1)OCc1ccccc1	> 100	> 99.5 µM
C[C@@]1(CNC(=O)c2cc(Cl)cc(NC(=O)OCc3ccccc3)c2)CNCCOC1	> 100	> 99.5 µM
NCc1ccc(CNC(=O)c2cc(Cl)cc(NC(=O)OCc3ccccc3)c2)c(F)c1	> 100	> 99.5 µM
NCc1cccc(NC(=O)[C@@H](NC(=O)OCc2ccccc2)c2ccc(OC[C@H]3CCS(=O)(=O)C3)cc2)c1	> 100	> 99.5 µM
CCC1(NC(=O)Cn2ccnc(N3CC[C@@H](CO)C3)c2=O)CC1	> 100	> 99.5 µM
O=C(Cn1ccnc(N2CC[C@H](CO)C2)c1=O)NCc1cccs1	> 100	> 99.5 µM
NCc1cccc(NC(=O)c2cc(Cl)cc(Cl)c2O)c1	> 100	> 99.5 µM
O=C(Nc1cc(Cl)cc(C(=O)NC[C@@]23CC[C@H](CNC2)C3)c1)OCc1ccccc1	> 100	> 99.5 µM
NC[C@H]1C[C@](F)(CNC(=O)c2cc(Cl)cc(NC(=O)OCc3ccccc3)c2)C1	> 100	> 99.5 µM
NCc1cccc(NC(=O)[C@@H](NC(=O)OCc2ccccc2)C2CCN(S(=O)(=O)[C@H]3CCOC3)CC2)c1	> 100	> 99.5 µM
CC(=O)Nc1cc(Cl)cc(C(=O)Nc2cccc(CN)c2)c1	> 100	> 99.5 µM
NC[C@]12CC[C@](NC(=O)c3cc(Cl)cc(NC(=O)OCc4ccccc4)c3)(CO1)C2	> 100	> 99.5 µM

Compound	IC50 (Genome polyprotein [1]) [µM]	IC50 (Genome polyprotein [2])
Cc1cccc(CNc2ccc(Cl)cc2C(=O)Nc2cccc(CN)c2)n1	> 100	> 99.5 µM
NCc1cccc(NC(=O)[C@@H](NC(=O)OCc2ccccc2)C2CCN(Cc3ccncc3)CC2)c1	> 100	> 99.5 µM
O=C(Nc1cc(Cl)cc(C(=O)NC[C@H]2CCNC3(CC3)C2)c1)OCc1ccccc1	> 100	> 99.5 µM
Cc1ncc(COc2ccc([C@@H](NC(=O)OCc3ccccc3)C(=O)Nc3cccc(CN)c3)cc2)o1	> 100	> 99.5 µM
O=C(Nc1cc(Cl)cc(C(=O)N[C@@]23CCCCC[C@@H]2NCC3)c1)OCc1ccccc1	> 100	> 99.5 µM
N[C@H]1CC[C@H](NC(=O)c2cc(Cl)cc(NC(=O)OCc3ccccc3)c2)C1	> 100	> 99.5 µM
CCCC(=O)Nc1cc(Cl)cc(C(=O)Nc2cccc(CN)c2)c1	> 100	> 99.5 µM
C[C@H]1CCCCN1C(=O)Cn1ccnc(N2CC[C@@H](CO)C2)c1=O	> 100	> 99.5 µM
Cc1nccn1-c1ccc(Cl)cc1C(=O)Nc1cccc(CN)c1	> 100	> 99.5 µM
CNC(=O)CN1CCC([C@@H](NC(=O)OCc2ccccc2)C(=O)Nc2cccc(CN)c2)CC1	> 100	> 99.5 µM
O=C(Nc1cc(Cl)cc(C(=O)NC[C@H]2CNC3(CC3)CO2)c1)OCc1ccccc1	> 100	> 99.5 µM
O=C(Nc1cc(Cl)cc(C(=O)NC2([C@H]3CCNC3)CC2)c1)OCc1ccccc1	> 100	> 99.5 µM
O=C(Nc1cc(Cl)cc(C(=O)Nc2nccn2C2CNC2)c1)OCc1ccccc1	> 100	> 99.5 µM
N[C@@H]1CC[C@H](CCNC(=O)c2cc(Cl)cc(NC(=O)OCc3ccccc3)c2)C1	> 100	> 99.5 µM
Cc1cc(C(=O)Nc2cccc(CN)c2)cc(NC(=O)OCc2ccccc2)c1Cl	> 100	55.4 µM
N[C@@H]1CC[C@H](NC(=O)c2cc(Cl)cc(NC(=O)OCc3ccccc3)c2)C1	> 100	> 99.5 µM
CCc1ccc([C@@H](CC(=O)Nc2cccc(CN)c2)NC(=O)OCc2ccccc2)cc1Br	85.1	16.4 µM and 22.3 µM
CN1CCC(COc2ccc([C@@H](NC(=O)OCc3ccccc3)C(=O)Nc3cccc(CN)c3)cc2)CC1	> 100	> 99.5 µM
Cn1nc2c(c1NC(=O)c1cc(Cl)cc(NC(=O)OCc3ccccc3)c1)CNCC2	> 100	60.7 µM
NC[C@]1(F)C[C@@H](NC(=O)c2cc(Cl)cc(NC(=O)OCc3ccccc3)c2)C1	> 100	66.6 µM
CCCN(C)CC(=O)N1CCC([C@@H](NC(=O)OCc2ccccc2)C(=O)Nc2cccc(CN)c2)CC1	> 100	> 99.5 µM
